# Reference: paper PMC10504751, “Chalcone/1,3,4-Oxadiazole/Benzimidazole hybrids as novel anti-proliferative agents inducing apoptosis and inhibiting EGFR & BRAFV^600E” (BMC Chemistry, 2023)
# What was measured:
# BRAF^V600E = experiment: biochemical
# Method: To further denature the protein, heat (70° C) was applied for 5 min. […] 10 µL of each reaction was loaded into the precast plates and electrophoresis was allowed to proceed. After completion of electrophoresis, the front part of the precast gel plate (holding hot ATP) was cut and afterwards cast-off. The dried gel was developed using a phosphor screen.
# EGFR = molecular target: T1, EGFR (Homo sapiens, UniProt P00533); experiment: EGFR-TK inhibitory assay; type: biochemical; conditions: read-out: EGFR Inhibition IC50 ± SEM
# T1 construct: EGFR cytoplasmic domain (EGFR-CD, amino acids 645–1186); His6 (N); made in house; host or cells: Sf-9 insect cells (baculovirus; pBlueBacHis2B / pFASTBacHTc)
# T1 sequence (P00533 669-1210): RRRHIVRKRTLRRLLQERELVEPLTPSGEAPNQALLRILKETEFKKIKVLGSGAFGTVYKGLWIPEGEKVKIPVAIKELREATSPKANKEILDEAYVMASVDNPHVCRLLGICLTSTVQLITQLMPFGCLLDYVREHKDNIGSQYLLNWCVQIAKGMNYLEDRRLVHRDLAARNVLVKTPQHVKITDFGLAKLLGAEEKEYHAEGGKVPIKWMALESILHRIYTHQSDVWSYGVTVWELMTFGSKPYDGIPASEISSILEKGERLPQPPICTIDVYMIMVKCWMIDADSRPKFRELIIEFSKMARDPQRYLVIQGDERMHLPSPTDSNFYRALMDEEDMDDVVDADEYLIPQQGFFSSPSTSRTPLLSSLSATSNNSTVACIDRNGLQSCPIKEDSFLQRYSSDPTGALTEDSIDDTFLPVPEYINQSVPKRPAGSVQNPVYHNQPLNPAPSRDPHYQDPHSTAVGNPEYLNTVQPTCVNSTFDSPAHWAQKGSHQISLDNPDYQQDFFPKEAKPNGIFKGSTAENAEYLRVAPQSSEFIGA
# RPMI-8226 = experiment: NCI one-dose SRB anti-proliferative screen; type: cell-based; conditions: Homo sapiens; RPMI-8226 (Leukemia), NCI one dose 10 µM; read-out: Cell growth inhibition %
# Summary of the method: (§1)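 Compounds were tested at a single 10 µM concentration within a 60-cell-line panel covering nine tumour subpanels. Growth was read colorimetrically by sulforhodamine B staining.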
# SF-295 = experiment: NCI one-dose SRB anti-proliferative screen; type: cell-based; conditions: Homo sapiens; SF-295 (CNS Cancer), NCI one dose 10 µM; read-out: Cell growth inhibition %
# Summary of the method: as §1
# SNB-75 = experiment: NCI one-dose SRB anti-proliferative screen; type: cell-based; conditions: Homo sapiens; SNB-75 (CNS Cancer), NCI one dose 10 µM; read-out: Cell growth inhibition %
# Summary of the method: as §1
# MDA-MB-231/ATCC = experiment: NCI one-dose SRB anti-proliferative screen; type: cell-based; conditions: Homo sapiens; MDA-MB-231/ATCC (Breast Cancer), NCI one dose 10 µM; read-out: Cell growth inhibition %
# Summary of the method: as §1
# MDA-MB-435 = experiment: NCI one-dose SRB anti-proliferative screen; type: cell-based; conditions: Homo sapiens; MDA-MB-435 (Melanoma), NCI one dose 10 µM; read-out: Cell growth inhibition %
# Summary of the method: as §1
# UO-31 = experiment: NCI one-dose SRB anti-proliferative screen; type: cell-based; conditions: Homo sapiens; UO-31 (Renal Cancer), NCI one dose 10 µM; read-out: Cell growth inhibition %
# Summary of the method: as §1
# HOP-62 = experiment: NCI one-dose SRB anti-proliferative screen; type: cell-based; conditions: Homo sapiens; HOP-62 (Non-Small Cell Lung Cancer), NCI one dose 10 µM; read-out: Cell growth inhibition %
# Summary of the method: as §1
# SK-MEL-5 = experiment: NCI one-dose SRB anti-proliferative screen; type: cell-based; conditions: Homo sapiens; SK-MEL-5 (Melanoma), NCI one dose 10 µM; read-out: Cell growth inhibition %
# Summary of the method: as §1
# MALME-3M = experiment: NCI one-dose SRB anti-proliferative screen; type: cell-based; conditions: Homo sapiens; MALME-3M (Melanoma), NCI one dose 10 µM; read-out: Cell growth inhibition %
# Summary of the method: as §1
# SR = experiment: NCI one-dose SRB anti-proliferative screen; type: cell-based; conditions: Homo sapiens; SR (Leukemia), NCI one dose 10 µM; read-out: Cell growth inhibition %
# Summary of the method: as §1
# CAKI-1 = experiment: NCI one-dose SRB anti-proliferative screen; type: cell-based; conditions: Homo sapiens; CAKI-1 (Renal Cancer), NCI one dose 10 µM; read-out: Cell growth inhibition %
# Summary of the method: as §1
# M14 = experiment: NCI one-dose SRB anti-proliferative screen; type: cell-based; conditions: Homo sapiens; M14 (Melanoma), NCI one dose 10 µM; read-out: Cell growth inhibition %
# Summary of the method: as §1
# HOP-92 = experiment: NCI one-dose SRB anti-proliferative screen; type: cell-based; conditions: Homo sapiens; HOP-92 (Non-Small Cell Lung Cancer), NCI one dose 10 µM; read-out: Cell growth inhibition %
# Summary of the method: as §1
# SNB-19 = experiment: NCI one-dose SRB anti-proliferative screen; type: cell-based; conditions: Homo sapiens; SNB-19 (CNS Cancer), NCI one dose 10 µM; read-out: Cell growth inhibition %
# Summary of the method: as §1
# SK-MEL-28 = experiment: NCI one-dose SRB anti-proliferative screen; type: cell-based; conditions: Homo sapiens; SK-MEL-28 (Melanoma), NCI one dose 10 µM; read-out: Cell growth inhibition %
# Summary of the method: as §1
# COLO 205 = experiment: NCI one-dose SRB anti-proliferative screen; type: cell-based; conditions: Homo sapiens; COLO 205 (Colon Cancer), NCI one dose 10 µM; read-out: Cell growth inhibition %
# Summary of the method: as §1
# SN12C = experiment: NCI one-dose SRB anti-proliferative screen; type: cell-based; conditions: Homo sapiens, SN 12C (Renal Cancer), NCI one dose 10 µM, read-out: Cell growth inhibition %
# Summary of the method: as §1
# NCI-H460 = experiment: NCI one-dose SRB anti-proliferative screen; type: cell-based; conditions: Homo sapiens; NCI-H460 (Non-Small Cell Lung Cancer), NCI one dose 10 µM; read-out: Cell growth inhibition %
# Summary of the method: as §1
# SK-MEL-2 = experiment: NCI one-dose SRB anti-proliferative screen; type: cell-based; conditions: Homo sapiens; SK-MEL-2 (Melanoma), NCI one dose 10 µM; read-out: Cell growth inhibition %
# Summary of the method: as §1
# BT-549 = experiment: NCI one-dose SRB anti-proliferative screen; type: cell-based; conditions: Homo sapiens; BT-549 (Breast Cancer), NCI one dose 10 µM; read-out: Cell growth inhibition %
# Summary of the method: as §1
# NCI/ADR-RES = experiment: NCI one-dose SRB anti-proliferative screen; type: cell-based; conditions: Homo sapiens; NCI/ADR-RES (Ovarian Cancer), NCI one dose 10 µM; read-out: Cell growth inhibition %
# Summary of the method: as §1
# [1] = tested on: melanoma LOX-IMVI cell line; experiment: Propidium iodide anti-proliferative assay in LOX-IMVI; type: cell-based, human; conditions: Homo sapiens; melanoma LOX-IMVI, 48 h incubation
# Method: Consequently, the half-maximal inhibitory concentration (IC50) of these compounds was determined in LOX-IMVI cell line using propidium iodide (PI)^31, 32 with Staurosporine (broad spectrum protein kinase inhibitor) as a reference.
# Cells whose cell membranes are damaged or have changed permeability are counted as dead ones. […] The medium was removed; the compounds were added to the plates at 10 µM concentrations (in 0.1% DMSO) in triplicates, followed by incubation for 48 h. DMSO (0.1%) was used as control. After incubation, medium was removed followed by the addition of PI (25 µl, 50µg/mL in water/medium) to each well of the plates. At -80 °C, the plates were allowed to freeze for 24 h, followed by thawing at 25 °C. A fluorometer (Polar-Star BMG Tech) was used to record the readings at excitation and emission wavelengths of 530 and 620 nm for each well. The percentage cytotoxicity of compounds was calculated using the following formula:
# Where ATC= Absorbance of treated cells and AC= Absorbance of control.
# Sequence of BRAF^V600E (P28028 whole entry V585E): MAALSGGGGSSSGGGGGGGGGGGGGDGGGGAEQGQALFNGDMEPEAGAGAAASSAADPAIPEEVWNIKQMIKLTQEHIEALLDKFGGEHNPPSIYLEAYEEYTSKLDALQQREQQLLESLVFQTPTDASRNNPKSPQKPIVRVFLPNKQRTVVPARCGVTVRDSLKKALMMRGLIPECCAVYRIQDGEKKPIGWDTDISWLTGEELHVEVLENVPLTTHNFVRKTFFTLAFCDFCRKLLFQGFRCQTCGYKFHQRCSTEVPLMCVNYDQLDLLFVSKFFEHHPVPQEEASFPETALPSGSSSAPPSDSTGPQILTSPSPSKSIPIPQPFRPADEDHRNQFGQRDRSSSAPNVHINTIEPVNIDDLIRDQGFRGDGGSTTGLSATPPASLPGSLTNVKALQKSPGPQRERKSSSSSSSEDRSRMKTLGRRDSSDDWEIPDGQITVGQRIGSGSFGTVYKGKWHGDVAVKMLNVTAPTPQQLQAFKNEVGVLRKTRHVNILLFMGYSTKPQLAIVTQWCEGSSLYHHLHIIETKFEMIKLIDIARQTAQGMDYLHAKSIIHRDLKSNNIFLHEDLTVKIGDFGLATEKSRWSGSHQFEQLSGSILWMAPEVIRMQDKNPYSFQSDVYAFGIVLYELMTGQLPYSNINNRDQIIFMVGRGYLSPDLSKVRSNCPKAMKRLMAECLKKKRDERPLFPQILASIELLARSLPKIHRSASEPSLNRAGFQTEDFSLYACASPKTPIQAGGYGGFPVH
SMILES,IC50 (BRAF^V600E) [µM],IC50 (EGFR) [µM],inhibition at 10 µM (RPMI-8226) [%],inhibition at 10 µM (SF-295) [%],inhibition at 10 µM (SNB-75) [%],inhibition at 10 µM (MDA-MB-231/ATCC) [%],inhibition at 10 µM (MDA-MB-435) [%],inhibition at 10 µM (UO-31) [%],inhibition at 10 µM (HOP-62) [%],inhibition at 10 µM (SK-MEL-5) [%],inhibition at 10 µM (MALME-3M) [%],inhibition at 10 µM (SR) [%],inhibition at 10 µM (CAKI-1) [%],inhibition at 10 µM (M14) [%],inhibition at 10 µM (HOP-92) [%],inhibition at 10 µM (SNB-19) [%],inhibition at 10 µM (SK-MEL-28) [%],inhibition at 10 µM (COLO 205) [%],inhibition at 10 µM (SN12C) [%],inhibition at 10 µM (NCI-H460) [%],further results
"O=C(CSc1nnc(-c2ccc3[nH]c(-c4ccc(Cl)cc4)nc3c2)o1)Nc1ccc(C(=O)/C=C/c2ccc(Cl)cc2)cc1 [Compound 7g, 2-{5-[2-(4-Chlorophenyl)-1 H-benzo[d]imidazol-5-yl]-1,3,4-oxadiazol-2-ylthio}-N-{4-[(E)-3-(4-chlorophenyl)acryloyl]phenyl}acetamide]",1 ± 0.2,1.7 ± 0.2,95,7.04,9.09,9.38,0.11,24.7,2.12,6.32,0,50.2,16.4,0,5.81,0.54,0,0,15.1,0,inhibition at 10 µM (SK-MEL-2): 0%; inhibition at 10 µM (BT-549): 0.37%; inhibition at 10 µM (NCI/ADR-RES): 0%; IC50 [1]: 1.05 ± 0.1 µM
"COc1ccc(-c2nc3cc(-c4nnc(SCC(=O)Nc5ccc(C(=O)/C=C/c6ccccc6)cc5)o4)ccc3[nH]2)cc1OC [Compound 7p, 2-{5-[2-(3,4-Dimethoxyphenyl)-1 H-benzo[d]imidazol-5-yl]-1,3,4-oxadiazol-2-ylthio}-N-{4-[(E)-3-phenylacryloyl]phenyl}acetamide]",4.2 ± 0.3,3.5 ± 0.3,36,5.09,9.72,8.78,0,11.5,0,4.49,2.95,16.4,2.96,0,1.64,0,0,0,5.25,0,inhibition at 10 µM (SK-MEL-2): 0%; inhibition at 10 µM (BT-549): 5.86%; inhibition at 10 µM (NCI/ADR-RES): 0%; IC50 [1]: 1.2 ± 0.1 µM
